{
  "source": "ChEMBL document CHEMBL2434882",
  "about": "“A novel [1,2,4] triazolo [1,5-a] pyrimidine-based phenyl-linked steroid dimer: synthesis and its cytotoxic activity” (Eur J Med Chem, 2013)",
  "key": {"[1]": {"test": "Upregulation of Bax protein expression in human EC109 cells at 5 to 10 uM after 24 hrs by Western blot analysis", "type": "functional, cell-based", "details": "ECa-109"}, "[2]": {"test": "Upregulation of p53 protein expression in human EC109 cells at 5 to 10 uM after 24 hrs by Western blot analysis", "type": "functional, cell-based", "details": "ECa-109"}, "[3]": {"test": "Disruption of mitochondrial membrane potential in human EC109 cells at 10 uM after 24 hrs by JC1 staining-based flow cytometric analysis (reference value: 8.1%)", "type": "functional, ECa-109"}, "ECa-109 cell line [4]": {"system": "ECa-109 cell line", "test": "Induction of apoptosis in human EC109 cells assessed as change in cellular morphology at 1.25 to 20 uM after 24 hrs by inverted microscopic analysis", "type": "functional, cell-based"}, "ECa-109 cell line [5]": {"system": "ECa-109 cell line", "test": "Induction of apoptosis in human EC109 cells assessed as nuclear condensation at 1.25 to 20 uM after 24 hrs by Hoechst 33258 staining-based fluorescence microscopic analysis", "type": "functional, cell-based"}, "[6]": {"test": "Cell cycle arrest in human EC109 cells assessed as accumulation at G2/M phase at 10 uM after 24 hrs by propidium iodide staining-based flow cytometric analysis (reference value: 6.31%)", "type": "functional", "details": "ECa-109"}, "[7]": {"test": "Cell cycle arrest in human EC109 cells assessed as accumulation at G0/G1 phase at 10 uM after 24 hrs by propidium iodide staining-based flow cytometric analysis (reference value: 51.57%)", "type": "functional", "details": "ECa-109"}, "[8]": {"test": "Cell cycle arrest in human EC109 cells assessed as accumulation at G2/M phase at 5 uM after 24 hrs by propidium iodide staining-based flow cytometric analysis (reference value: 6.31%)", "type": "functional", "details": "ECa-109"}, "[9]": {"test": "Cell cycle arrest in human EC109 cells assessed as accumulation at S phase at 5 uM after 24 hrs by propidium iodide staining-based flow cytometric analysis (reference value: 37.99%)", "type": "functional", "details": "ECa-109"}, "[10]": {"test": "Cell cycle arrest in human EC109 cells assessed as accumulation at S phase at 10 uM after 12 hrs by propidium iodide staining-based flow cytometric analysis (reference value: 33.29%)", "type": "functional", "details": "ECa-109"}, "[11]": {"test": "Cell cycle arrest in human EC109 cells assessed as accumulation at G2/M phase at 10 uM after 12 hrs by propidium iodide staining-based flow cytometric analysis (reference value: 13.72%)", "type": "functional", "details": "ECa-109"}, "[12]": {"test": "Cell cycle arrest in human EC109 cells assessed as accumulation at S phase at 5 uM after 12 hrs by propidium iodide staining-based flow cytometric analysis (reference value: 33.29%)", "type": "functional", "details": "ECa-109"}, "[13]": {"test": "Cell cycle arrest in human EC109 cells assessed as accumulation at G2/M phase at 2.5 uM after 12 hrs by propidium iodide staining-based flow cytometric analysis (reference value: 13.72%)", "type": "functional", "details": "ECa-109"}, "[14]": {"test": "Cell cycle arrest in human EC109 cells assessed as accumulation at G0/G1 phase at 2.5 uM after 12 hrs by propidium iodide staining-based flow cytometric analysis (reference value: 50.87%)", "type": "functional", "details": "ECa-109"}, "ECa-109 cell line [15]": {"system": "ECa-109 cell line", "test": "Induction of apoptosis in human EC109 cells assessed as increase in early apoptotic cells after 12 to 24 hrs by annexin V-FITC/propidium iodide staining-based flow cytometric analysis", "type": "functional, cell-based"}, "ECa-109 cell line [16]": {"system": "ECa-109 cell line", "test": "Induction of apoptosis in human EC109 cells assessed as live cells at 40 uM after 24 hrs by annexin V-FITC/propidium iodide staining-based flow cytometric analysis (reference value: 93.6%)", "type": "functional"}, "ECa-109 cell line [17]": {"system": "ECa-109 cell line", "test": "Induction of apoptosis in human EC109 cells assessed as live cells at 20 uM after 24 hrs by annexin V-FITC/propidium iodide staining-based flow cytometric analysis (reference value: 93.6%)", "type": "functional"}, "ECa-109 cell line [18]": {"system": "ECa-109 cell line", "test": "Induction of apoptosis in human EC109 cells assessed as early apoptotic cells at 20 uM after 24 hrs by annexin V-FITC/propidium iodide staining-based flow cytometric analysis (reference value: 3.8%)", "type": "functional"}, "ECa-109 cell line [19]": {"system": "ECa-109 cell line", "test": "Induction of apoptosis in human EC109 cells assessed as late apoptotic cells at 10 uM after 24 hrs by annexin V-FITC/propidium iodide staining-based flow cytometric analysis (reference value: 2.5%)", "type": "functional"}, "ECa-109 cell line [20]": {"system": "ECa-109 cell line", "test": "Induction of apoptosis in human EC109 cells assessed as early apoptotic cells at 10 uM after 24 hrs by annexin V-FITC/propidium iodide staining-based flow cytometric analysis (reference value: 3.8%)", "type": "functional"}, "ECa-109 cell line [21]": {"system": "ECa-109 cell line", "test": "Induction of apoptosis in human EC109 cells assessed as live cells at 5 uM after 24 hrs by annexin V-FITC/propidium iodide staining-based flow cytometric analysis (reference value: 93.6%)", "type": "functional"}, "ECa-109 cell line [22]": {"system": "ECa-109 cell line", "test": "Induction of apoptosis in human EC109 cells assessed as live cells at 2.5 uM after 24 hrs by annexin V-FITC/propidium iodide staining-based flow cytometric analysis (reference value: 93.6%)", "type": "functional"}, "ECa-109 cell line [23]": {"system": "ECa-109 cell line", "test": "Induction of apoptosis in human EC109 cells assessed as damaged cells at 2.5 uM after 24 hrs by annexin V-FITC/propidium iodide staining-based flow cytometric analysis (reference value: 0.1%)", "type": "functional"}, "ECa-109 cell line [24]": {"system": "ECa-109 cell line", "test": "Induction of apoptosis in human EC109 cells assessed as late apoptotic cells at 2.5 uM after 24 hrs by annexin V-FITC/propidium iodide staining-based flow cytometric analysis (reference value: 2.5%)", "type": "functional"}, "ECa-109 cell line [25]": {"system": "ECa-109 cell line", "test": "Induction of apoptosis in human EC109 cells assessed as early apoptotic cells at 2.5 uM after 24 hrs by annexin V-FITC/propidium iodide staining-based flow cytometric analysis (reference value: 3.8%)", "type": "functional"}, "ECa-109 cell line [26]": {"system": "ECa-109 cell line", "test": "Induction of apoptosis in human EC109 cells assessed as damaged cells at 40 uM after 12 hrs by annexin V-FITC/propidium iodide staining-based flow cytometric analysis (reference value: 0.4%)", "type": "functional"}, "ECa-109 cell line [27]": {"system": "ECa-109 cell line", "test": "Induction of apoptosis in human EC109 cells assessed as damaged cells at 20 uM after 12 hrs by annexin V-FITC/propidium iodide staining-based flow cytometric analysis (reference value: 0.4%)", "type": "functional"}, "ECa-109 cell line [28]": {"system": "ECa-109 cell line", "test": "Induction of apoptosis in human EC109 cells assessed as late apoptotic cells at 10 uM after 12 hrs by annexin V-FITC/propidium iodide staining-based flow cytometric analysis (reference value: 1.4%)", "type": "functional"}, "ECa-109 cell line [29]": {"system": "ECa-109 cell line", "test": "Induction of apoptosis in human EC109 cells assessed as early apoptotic cells at 10 uM after 12 hrs by annexin V-FITC/propidium iodide staining-based flow cytometric analysis (reference value: 6.1%)", "type": "functional"}, "ECa-109 cell line [30]": {"system": "ECa-109 cell line", "test": "Induction of apoptosis in human EC109 cells assessed as live cells at 5 uM after 12 hrs by annexin V-FITC/propidium iodide staining-based flow cytometric analysis (reference value: 92.1%)", "type": "functional"}, "ECa-109 cell line [31]": {"system": "ECa-109 cell line", "test": "Induction of apoptosis in human EC109 cells assessed as damaged cells at 5 uM after 12 hrs by annexin V-FITC/propidium iodide staining-based flow cytometric analysis (reference value: 0.4%)", "type": "functional"}, "ECa-109 cell line [32]": {"system": "ECa-109 cell line", "test": "Induction of apoptosis in human EC109 cells assessed as live cells at 2.5 uM after 12 hrs by annexin V-FITC/propidium iodide staining-based flow cytometric analysis (reference value: 92.1%)", "type": "functional"}, "[33]": {"test": "Cytotoxicity against human L02 cells assessed as growth inhibition after 72 hrs by MTT assay", "type": "cell-based", "details": "L02, 72 h"}, "PC-3": {"system": "PC-3", "test": "Cytotoxicity against human PC3 cells assessed as growth inhibition after 72 hrs by MTT assay", "type": "functional, cell-based", "details": "PC-3, 72 h"}, "MGC-803": {"system": "MGC-803", "test": "Cytotoxicity against human MGC803 cells assessed as growth inhibition after 72 hrs by MTT assay", "type": "functional, cell-based", "details": "MGC-803, 72 h"}},
  "note": "Activity calls are given as the source filed them. No cut-off for these calls is given here.",
  "data": [
    {"smiles": "C[C@]12CC[C@H](O)CC1=CC[C@@H]1[C@@H]2CC[C@]2(C)c3nc4ncnn4c(-c4cccc(-c5c6c(nc7ncnn57)[C@@]5(C)CC[C@H]7[C@@H](CC=C8C[C@@H](O)CC[C@@]87C)[C@@H]5C6)c4)c3C[C@@H]12", "values": [
      {"measurement": "Activity", "setting": "[1]", "result": "Active"},
      {"measurement": "Activity", "setting": "[2]", "result": "Active"},
      {"measurement": "Activity", "setting": "[3]", "result": 76.7, "unit": "%"},
      {"measurement": "Activity", "setting": "ECa-109 cell line [4]", "result": "Active"},
      {"measurement": "Activity", "setting": "ECa-109 cell line [5]", "result": "Active"},
      {"measurement": "Activity", "setting": "[6]", "result": 25.1, "unit": "%"},
      {"measurement": "Activity", "setting": "[7]", "result": 45, "unit": "%"},
      {"measurement": "Activity", "setting": "[8]", "result": 19.4, "unit": "%"},
      {"measurement": "Activity", "setting": "[9]", "result": 27, "unit": "%"},
      {"measurement": "Activity", "setting": "[10]", "result": 21.6, "unit": "%"},
      {"measurement": "Activity", "setting": "[11]", "result": 28.3, "unit": "%"},
      {"measurement": "Activity", "setting": "[12]", "result": 29.5, "unit": "%"},
      {"measurement": "Activity", "setting": "[13]", "result": 17.9, "unit": "%"},
      {"measurement": "Activity", "setting": "[14]", "result": 48.5, "unit": "%"},
      {"measurement": "Activity", "setting": "ECa-109 cell line [15]", "result": "Dose-dependent effect"},
      {"measurement": "Activity", "setting": "ECa-109 cell line [16]", "result": 8.3, "unit": "%"},
      {"measurement": "Activity", "setting": "ECa-109 cell line [17]", "result": 7.2, "unit": "%"},
      {"measurement": "Activity", "setting": "ECa-109 cell line [18]", "result": 31.5, "unit": "%"},
      {"measurement": "Activity", "setting": "ECa-109 cell line [19]", "result": 47.7, "unit": "%"},
      {"measurement": "Activity", "setting": "ECa-109 cell line [20]", "result": 24, "unit": "%"},
      {"measurement": "Activity", "setting": "ECa-109 cell line [21]", "result": 48.2, "unit": "%"},
      {"measurement": "Activity", "setting": "ECa-109 cell line [22]", "result": 72.3, "unit": "%"},
      {"measurement": "Activity", "setting": "ECa-109 cell line [23]", "result": 0.2, "unit": "%"},
      {"measurement": "Activity", "setting": "ECa-109 cell line [24]", "result": 2.5, "unit": "%"},
      {"measurement": "Activity", "setting": "ECa-109 cell line [25]", "result": 25, "unit": "%"},
      {"measurement": "Activity", "setting": "ECa-109 cell line [26]", "result": 7.9, "unit": "%"},
      {"measurement": "Activity", "setting": "ECa-109 cell line [27]", "result": 2.1, "unit": "%"},
      {"measurement": "Activity", "setting": "ECa-109 cell line [28]", "result": 23.4, "unit": "%"},
      {"measurement": "Activity", "setting": "ECa-109 cell line [29]", "result": 19.9, "unit": "%"},
      {"measurement": "Activity", "setting": "ECa-109 cell line [30]", "result": 59.9, "unit": "%"},
      {"measurement": "Activity", "setting": "ECa-109 cell line [31]", "result": 2, "unit": "%"},
      {"measurement": "Activity", "setting": "ECa-109 cell line [32]", "result": 58.3, "unit": "%"},
      {"measurement": "IC50", "setting": "[33]", "result": 83, "unit": "µM"},
      {"measurement": "IC50", "setting": "PC-3", "result": 3.18, "unit": "µM"},
      {"measurement": "IC50", "setting": "MGC-803", "result": 0.13, "unit": "µM"}
    ]}
  ]
}
